Data on 40 compounds can be found in patent publication USRE45173E1, “Inhibitors of CYP 17” (Novartis AG, priority 2009, dated 2014).

pIC50: −log10 of the molar value.

Chain of recombinant human CYP17 enzyme (P05093 whole entry): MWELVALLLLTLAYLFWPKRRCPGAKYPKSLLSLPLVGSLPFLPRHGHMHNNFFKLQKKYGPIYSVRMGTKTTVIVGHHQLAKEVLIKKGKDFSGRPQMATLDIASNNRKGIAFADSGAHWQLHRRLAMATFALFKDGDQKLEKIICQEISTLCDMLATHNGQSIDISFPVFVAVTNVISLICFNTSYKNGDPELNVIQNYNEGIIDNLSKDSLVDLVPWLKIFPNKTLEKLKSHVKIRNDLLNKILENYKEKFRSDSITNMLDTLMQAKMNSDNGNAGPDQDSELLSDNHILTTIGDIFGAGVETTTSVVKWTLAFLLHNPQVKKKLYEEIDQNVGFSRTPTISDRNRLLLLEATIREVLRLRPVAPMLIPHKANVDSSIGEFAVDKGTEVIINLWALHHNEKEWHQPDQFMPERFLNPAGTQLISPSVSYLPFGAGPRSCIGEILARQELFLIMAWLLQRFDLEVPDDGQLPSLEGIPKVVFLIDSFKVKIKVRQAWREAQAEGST

The target in the first assay is recombinant human CYP17 enzyme (Homo sapiens (Human), UniProt P05093). Briefly: Cytochrome P450, 17-20 lyase (CYP17-lyase) assay, tritiated acetic acid release from 17-α-hydroxy pregnenolone [21-3H]. In kind it is biochemical. The following applies: human CYP17, substrate 0.25 μM; read-out: Lyase IC 50 nM Human/Rat (Human). An excerpt:
Assay method was adopted from a published protocol with some modifications to suit our requirements (Dmitry N Grigoryev et al, Analytical Biochemistry, (1999) 267, 319-330). […] Chloroform extraction removes the radioactive steroids and acetic acid is taken into aqueous layer. The tritiated acetic acid released in the assay thus extracted is quantified to determine the enzyme activity. […] The purified cell membrane preparations were used as the source for Human CYP17 enzyme. […] O, Nijar, et al., J Med Chem, (1998) 41, 902-912). […] Km for this substrate was determined by monitoring the tritiated acetic acid release as a function of substrate concentration. […] For the Km determination, the data was fit to a hyperbolic equation (Graphpad Prism® software IV). […] (Dmitry N. Grigoryev et al, Analytical Biochemistry (1999) 267, 319-330) […] NADPH is used at a final concentration of 4.2 mM. Total reaction volume was made up to 50 μL with 50 mM Phosphate buffer pH 7.5. The reaction mixture was incubated at room temperature for 90 minutes with gentle shaking. The reaction was stopped by the addition of 100 μL of buffer. 500 μL of 5% freshly prepared activated charcoal was added to the solution and mixed well by vortexing. The samples were centrifuged at 17568×g for 5 minutes. (14000 rpm). The supernatant was carefully transferred to fresh tube and 1.3 mL of scintillation fluid was added, mixed by vortexing. The radioactivity was measured in a 1450 MicroBeta TriLux™ scintillation counter from Wallac-Perkin Elmer®, USA. The measurements were carried out in 2.0 mL Eppendorforf™ tubes. […] The amount of tritiated acetic acid released is proportional to the lyase activity. Percent lyase activity in presence of inhibitor was calculated using the formula given below. […] Enzyme reaction in presence of inhibitor. • Positive control: […] For IC50 determination, the % inhibition was plotted as a function of inhibitor concentration. The data was fitted to sigmoidal equation using Graphpad Prism® software IV to generate IC50 values.
Regarding `Cc1ccncc1N1CCN(c2ccc3nccn3c2)C1=O` [Example 94A, 1-Imidazo[1,2-a]pyridin-6-yl-3-(4-methyl-pyridin-3-yl)-imidazolidin-2-one], the IC50 was found to be 110 nM.
Same read-out and setting: for `Cc1ccncc1N1CCN(c2ccc3[nH]nc(C)c3c2)C1=O` [Example 95A, 1-(3-Methyl-1H-indazol-5-yl)-3-(4-methyl-pyridin-3-yl)-imidazolidin-2-one] the value was 119 nM.
On the same count and under the same terms, for `COc1nccc2sc(N3CCN(c4cnccc4C)C3=O)cc12` [Example 97A, 1-(4-Methoxy-thieno[3,2-c]pyridin-2-yl)-3-(4-methyl-pyridin-3-yl)-imidazolidin-2-one] the value was 356 nM; for `Cc1ccncc1N1CCN(c2cc3c(Cl)nccc3s2)C1=O` [Example 98A, 1-(4-chloro-thieno[3,2-c]pyridin-2-yl)-3-(4-methyl-pyridin-3-yl)-imidazolidin-2-one], 18 nM; for `Cc1ccncc1N1CCN(c2csc3ccnc(Cl)c23)C1=O` [Example 99A, 1-(4-Chloro-thieno[3,2-c]pyridin-3-yl)-3-(4-methyl-pyridin-3-yl)-imidazolidin-2-one], 22 nM.
Still for that read-out and setting: under `Cc1cc(N2CCN(c3cnccc3C)C2=O)ccn1` [Example 100A, 1-(4-Methyl-pyridin-3-yl)-3-(2-methyl-pyridin-4-yl)-imidazolidin-2-one] stands 46 nM.
For `Cc1ccncc1N1CCN(c2ccc3onc(C)c3c2)C1=O` [Example 101A, 1-(3-Methyl-benzo[d]isoxazol-5-yl)-3-(4-methyl-pyridin-3-yl)-imidazolidin-2-one], the IC50 is 46 nM.
Still for that read-out and setting: for `Cc1ccncc1N1CCN(c2ccc(F)c(C#N)c2)C1=O` [Example 103A, 2-Fluoro-5-[3-(4-methyl-pyridin-3-yl)-2-oxo-imidazolidin-1-yl]-benzonitrile] the value was 19 nM.
Same read-out and setting: for `Cc1cn2cc(N3CCN(c4cnccc4C)C3=O)ccc2n1` [Example 104A] the value was 1990 nM.
The same measure, in the same setting: under `Cc1nc2ccc(N3CCN(c4cnccc4C)C3=O)cc2s1` [Example 105A, 1-(2-Methyl-benzothiazol-6-yl)-3-(4-methyl-pyridin-3-yl)-imidazolidin-2-one] stands 1470 nM; under `Cc1ccncc1N1CCN(c2cccc(C#N)c2)C1=O` [Example 106A, 3-[3-(4-Methyl-pyridin-3-yl)-2-oxo-imidazolidin-1-yl]-benzonitrile], 35 nM; under `Cc1ccncc1N1CCN(c2c[nH]c3ccccc23)C1=O` [Example 107A, 1-(1H-Indol-3-yl)-3-(4-methyl-pyridin-3-yl)-imidazolidin-2-one], 334 nM.
As for `Cc1ccncc1N1CCN(c2ccc3[nH]cnc3c2)C1=O` [Example 108A, 1-(1H-Benzoimidazol-5-yl)-3-(4-methyl-pyridin-3-yl)-imidazolidin-2-one], the IC50 stood at 363 nM.
As to `Cc1ccncc1N1CCN(c2csc3ccccc23)C1=O` [Example 109A, 1-Benzo[b]thiophen-3-yl-3-(4-methyl-pyridin-3-yl)-imidazolidin-2-one], the IC50 amounted to 158 nM.
On the same count and under the same terms, for `Cc1ccncc1N1CCN(c2ccc3c(C)noc3c2)C1=O` [Example 111A, 1-(3-Methyl-benzo[d]isoxazol-6-yl)-3-(4-methyl-pyridin-3-yl)-imidazolidin-2-one] the value was 106 nM; for `Cc1ccncc1N1CCN(c2ccc(C#N)c(Cl)c2)C1=O` [Example 112A, 2-Chloro-4-[3-(4-methyl-pyridin-3-yl)-2-oxo-imidazolidin-1-yl]-benzonitrile], 28 nM.
On the same count and under the same terms, for `Cc1ccncc1N1CCN(c2ccc3oncc3c2)C1=O` [Example 113A, 1-Benzo[d]isoxazol-5-yl-3-(4-methyl-pyridin-3-yl)-imidazolidin-2-one] the value was 230 nM.
The same measure, in the same setting: under `Cc1ccncc1N1CCN(c2ccc3c(cnn3C)c2)C1=O` [Example 114A, 1-(1-Methyl-1H-indazol-5-yl)-3-(4-methyl-pyridin-3-yl)-imidazolidin-2-one] stands 24 nM.
For the compound `Cc1ccncc1N1CCN(c2ccc3[nH][nH]c(=O)c3c2)C1=O` [Example 117A, 5-[3-(4-Methyl-pyridin-3-yl)-2-oxo-imidazolidin-1-yl]-1,2-dihydro-indazol-3-one], the IC50 was 94 nM.
Still for that read-out and setting: under `Cc1ccncc1N1CCN(c2ccc3[nH]nc(N)c3c2)C1=O` [Example 118A, 1-(3-Amino-1H-indazol-5-yl)-3-(4-methyl-pyridin-3-yl)-imidazolidin-2-one] stands 17 nM; under `Cc1ccncc1N1CCN(c2cnc3ccccn23)C1=O` [Example 119A, 1-Imidazo[1,2-a]pyridin-3-yl-3-(4-methyl-pyridin-3-yl)-imidazolidin-2-One], 3200 nM.
Consider `Cc1ccncc1N1CCN(c2ccc3cn[nH]c3c2)C1=O` [Example 121A, 1-(1H-Indazol-6-yl)-3-(4-methyl-pyridin-3-yl)-imidazolidin-2-one], for which the IC50 amounted to 2.5 nM.
Still for that read-out and setting: for `Cc1ccncc1N1CCN(c2cnc3[nH]cnc3c2)C1=O` [Example 122A, 1-(3H-Imidazo[4,5-b]pyridin-6-yl)-3-(4-methyl-pyridin-3-yl)-imidazolidin-2-one Trifluoroacetic Acid] the value was 383 nM; for `Cc1ccncc1N1CCN(c2ccc3c(N)n[nH]c3c2)C1=O` [Example 123A, 1-(3-Amino-1H-indazol-6-yl)-3-(4-methyl-pyridin-3-yl)-imidazolidin-2-one], 10 nM.
On the same count and under the same terms, under `O=C1N(c2ccc3ncsc3c2)CCN1c1cnccc1C(F)F` [Example 125A, 1-Benzothiazol-6-yl-3-(4-difluoromethyl-pyridin-3-yl)-imidazolidin-2-one] stands 17 nM.
On the same count and under the same terms, for `O=C1N(c2ccc3ncsc3c2)CCN1c1cnccc1CO` [Example 126A, 1-Benzothiazol-6-yl-3-(4-hydroxymethyl-pyridin-3-yl)-imidazolidin-2-one] the value was 25 nM.
As for `O=C1N(c2ccc3ncsc3c2)CCN1c1cnccc1C(F)(F)F` [Example 128A, 1-Benzothiazol-6-yl-3-(4-trifluoromethyl-pyridin-3-yl)-imidazolidin-2-one], the IC50 came out at 44 nM.
On the same count and under the same terms, for `N#Cc1ccncc1N1CCN(c2ccc3ncsc3c2)C1=O` [Example 129A] the value was 202 nM; for `Cc1cccc(N2CCN(c3cnccc3C(F)(F)F)C2=O)c1` [Example 131A, 1-m-Tolyl-3-(4-trifluoromethyl-pyridin-3-yl)-imidazolidin-2-one], 103 nM.
Turning to `Cc1ccncc1N1CCN(c2cccc3ccccc23)C1=O` [Example 133A, 1-(4-Methyl-pyridin-3-yl)-3-naphthalen-1-O-imidazolidin-2-one], the IC50 is 1970 nM.
On the same count and under the same terms, under `Cc1ccncc1N1CCN(c2ccc3c(ccn3C)c2)C1=O` [Example 134A, 1-(1-Methyl-1H-indol-5-yl)-3-(4-methyl-pyridin-3-yl)-imidazolidin-2-one] stands 950 nM; under `Cc1ccncc1N1CCN(c2ccc3c(=O)[nH][nH]c3c2)C1=O` [Example 135A, 6-[3-(4-Methyl-pyridin-3-yl)-2-oxo-imidazolidin-1-yl]-1,2-dihydro-indazol-3-one], 15.9 nM.

The same assay, now with this note: human CYP17, substrate 0.25 μM; read-out: Lyase IC 50 Human/Rat (Human).
Take `Cc1nc2cc(N3CCN(c4cnccc4C)C3=O)ccc2o1` [Example 93A, 1-(2-Methyl-benzooxazol-5-yl)-3-(4-methyl-pyridin-3-yl)-imidazolidin-2-one]: the pIC50 was under 5.00.
For `CC(=O)Nc1cc(N2CCN(c3cnccc3C)C2=O)ccn1` [Example 96A], the pIC50 is under 5.00.
With `COc1nccc2scc(N3CCN(c4cnccc4C)C3=O)c12` [Example 110A, 1-(4-Methoxy-thieno[3,2-c]pyridin-3-yl)-3-(4-methyl-pyridin-3-yl)-imidazolidin-2-one], the pIC50 was under 5.00.
As for `Cc1ccncc1N1CCN(c2ccc3c(c2)ncn3C)C1=O` [Example 116A, 1-(1-Methyl-1H-benzoimidazol-5-yl)-3-(4-methyl-pyridin-3-yl)-trifluoroacetic Acid], the pIC50 was under 5.00.
Still for that read-out and setting: for `Cc1ccncc1N1CCN(c2cc3cnccc3s2)C1=O` [Example 120A, 1-(4-Methyl-pyridin-3-yl)-3-thieno[3,2-c]pyridin-2-yl-imidazolidin-2-one] the value was 5.40; for `Cc1ccc(N2CCN(c3ccc4ncsc4c3)C2=O)cn1` [Example 127A, 1-Benzothiazol-6-yl-3-(6-methyl-pyridin-3-yl)-imidazolidin-2-one], under 5.00.
Still for that read-out and setting: under `Cc1ccncc1N1CCCN(c2ccc3ccccc3c2)C1=O` [Example 130A, 1-(4-Methyl-pyridin-3-yl)-3-naphthalen-2-yl-tetrahydro-pyrimidin-2-one] stands under 5.00.
On to `Cc1ccncc1N1CCN(c2ccc3nn(C)cc3c2)C1=O` [Example 132A, 1-(2-Methyl-2H-indazol-5-yl)-3-(4-methyl-pyridin-3-yl)-imidazolidin-2-one], for which the pIC50 is under 5.00.
